Data taken from PubChem BioAssay AID1996.
Converted amounts (≈) assume the structure as drawn.

Settings: buffer; pH 7.4; 200.0 µM

| Compound | solubility kinetic |
| --- | --- |
| Cc1ccnc2nc(C(=O)OCC(=O)Nc3ccc4c(c3)OCCO4)nn12 | > 55.4 µg/mL |
| COC(=O)c1sccc1NC(=O)Nc1ccccc1OC | 40 µg/mL (≈ 131 µM) |
| Cc1ccc(CN2CCCN(C)CC2)c(C)c1 | 23.4 µg/mL (≈ 101 µM) |
| COc1ccc(NCC(=O)Nc2cccc(S(=O)(=O)N3CCCC3)c2)cc1Cl | 13.6 µg/mL (≈ 32.1 µM) |
| Nc1nc(C23CC4CC(CC(Cl)(C4)C2)C3)cs1 | 8.5 µg/mL (≈ 31.6 µM) |
| O=C(NC1CCCCC1)c1cc(F)cc2c1OCOC2 | 28.9 µg/mL (≈ 103 µM) |
| Cc1cccc(OCC(=O)Nc2ccc3oc(=O)ccc3c2)c1 | 3.3 µg/mL (≈ 10.7 µM) |
| COc1ccc(NC(=O)c2ccc3nc[nH]c3c2)c(OC)c1 | 42.9 µg/mL (≈ 144 µM) |
| Cc1ccc(NC(=O)C(C)OC(=O)CCC2CCCCC2)cc1 (stereo not drawn) | 4.1 µg/mL (≈ 12.9 µM) |
| O=S(=O)(Nc1ccc(Cl)cc1)c1ccc2c(c1)CCO2 | > 46.5 µg/mL |
| CCc1ccc(C(C)NC(=S)NC2CCCCC2)cc1 (stereo not drawn) | 11.4 µg/mL (≈ 39.2 µM) |
| O=C(NC1CC1)C1CCN(c2nc3ccccc3s2)CC1 | > 45.2 µg/mL |
| CCc1noc(C)c1C(=O)NCCc1ccccc1 | > 38.7 µg/mL |
| COc1ccc(-c2c3c(=O)n(C)c(=O)n(C)c3cn2-c2ccc(O)cc2)cc1 | 20.4 µg/mL (≈ 54.1 µM) |
| CCCOCc1ccc(O)c2ncccc12 | 19.6 µg/mL (≈ 90.2 µM) |
| Cc1ccc(Cl)cc1NS(=O)(=O)Cc1ccccc1 | 9 µg/mL (≈ 30.4 µM) |
| O=C1CNC(=S)N1c1nc2ccccc2s1 | 31.6 µg/mL (≈ 127 µM) |
| COc1cccc(NC(=O)c2cccnn2)c1 | > 34.4 µg/mL |
| Cc1cccc(CSc2[nH]c(=O)ncc2C)c1 | 15.7 µg/mL (≈ 63.7 µM) |
| Cc1cc2nc3c(=O)n(C4CCCCC4)c(=O)[nH]c3nc2cc1N | 2.8 µg/mL (≈ 8.61 µM) |
| CC1(c2ccc3noc(-c4cccc(F)c4)c3c2)OCCO1 | < 0.6 µg/mL |
| CCN(CC)Cc1c(O)ccc2c1O/C(=C\C=C\c1ccccc1)C2=O | 42.2 µg/mL (≈ 121 µM) |
| Cc1cccc(CSCc2ccc(C(=O)NC3CCCC3)o2)c1 | 25.6 µg/mL (≈ 77.7 µM) |
| CCNC(=S)NC(=NCc1cccnc1)Nc1nc(C)cc(C)n1 | 46.7 µg/mL (≈ 136 µM) |

| Compound | solubility kinetic |
| --- | --- |
| O=c1c2ccccc2ncn1-c1ccc([N+](=O)[O-])cc1[N+](=O)[O-] | 2.7 µg/mL (≈ 8.65 µM) |
| CC(=O)Nc1ccc(S(=O)(=O)NCCc2c[nH]c3ccc(C)cc23)cc1 | 33.8 µg/mL (≈ 91 µM) |
| Cc1cc(NC(=O)/C=C/c2ccccc2)c(C(C)C)cc1O | 5.4 µg/mL (≈ 18.3 µM) |
| Cc1nnc(SCC(=O)NC2CC2)s1 | > 34.4 µg/mL |
| c1ccc(CCNCCCOc2cccc3ccccc23)cc1 | 37.1 µg/mL (≈ 121 µM) |
| CCOc1cccc(NC(=O)/C(C#N)=C/c2cccnc2)c1 | 31.7 µg/mL (≈ 108 µM) |
| COc1ccc(NS(=O)(=O)c2ccc(O)c([N+](=O)[O-])c2)cc1S(=O)(=O)N1CCCCC1 | > 70.7 µg/mL |
| CN(Cc1ccccc1)S(=O)(=O)c1ccc2c(c1)n(C)c(=O)c(=O)n2C | 1.4 µg/mL (≈ 3.75 µM) |
| Cc1sc2ncnc(SCC(=O)N3CCCC(C(N)=O)C3)c2c1C (stereo not drawn) | 53.6 µg/mL (≈ 147 µM) |
| O=C(Nc1ccc2c(c1)CCC2)c1cc(F)cc(F)c1 | 3.7 µg/mL (≈ 13.5 µM) |
| C/C(=N\S(=O)(=O)c1ccc(C)cc1)NC(=S)Nc1ccccc1 | 2.1 µg/mL (≈ 6.04 µM) |
| Cc1cccc(NC(=O)[C@@H]2CCCN2C(=O)OC(C)(C)C)c1C | 39.6 µg/mL (≈ 124 µM) |
| CC1CC1C(=O)Nc1nc(-c2ccc(Cl)s2)cs1 (stereo not drawn) | 0.6 µg/mL (≈ 2.01 µM) |
| COc1cc(OC)cc(C(=O)NCC(=O)OCC(=O)NCc2ccco2)c1 | > 56.5 µg/mL |
| CNc1snc(C)c1C(=O)OCC(=O)c1ccc(Cl)cc1 | 2.6 µg/mL (≈ 8.01 µM) |
| COc1cc(/C=C/C(=O)N(C)CC(=O)Nc2ccccc2SC)cc(OC)c1OC | > 64.6 µg/mL |
| O=C(Nc1ccc2ccccc2c1)c1ccc(Cl)cc1 | < 0.6 µg/mL |
| O=C(Cc1ccccc1)NC(=S)Nc1ccc(OC(F)F)cc1 | 11.2 µg/mL (≈ 33.3 µM) |
| CCn1c(=O)c2ccccc2n(CC(=O)NC2CCCCC2)c1=O | 15.4 µg/mL (≈ 46.8 µM) |
| COc1ccc(NC(=O)COC(=O)c2ccc3ccccc3n2)cc1OC | 6.7 µg/mL (≈ 18.3 µM) |
| COc1ccc(Cl)cc1NC(=S)Nc1cccnc1 | 38.1 µg/mL (≈ 130 µM) |
| COc1cccc(NC(=O)C(=S)NC2CCCCC2)c1 | 1.3 µg/mL (≈ 4.45 µM) |
| O=S(=O)(NCC1COc2ccccc2O1)c1ccccc1F (stereo not drawn) | > 48.5 µg/mL |
| CCN(CC)S(=O)(=O)c1ccc(NC(=S)NC(=O)C2CCC2)cc1 | 18.7 µg/mL (≈ 50.6 µM) |

| Compound | solubility kinetic |
| --- | --- |
| CC1=CC(C)(C)NC(=S)N1c1ccccc1C | 13.6 µg/mL (≈ 55.2 µM) |
| Cc1cccc(C)c1NC(=O)COC(=O)c1cccnc1 | > 42.6 µg/mL |
| Cc1ccc(NC(=O)COC(=O)C2CC(=O)N(Cc3ccccc3)C2)cc1F (stereo not drawn) | 46.8 µg/mL (≈ 122 µM) |
| Cc1ccc(-c2nonc2NC(=O)c2ccco2)cc1 | > 40.4 µg/mL |
| CC(C)OC(=O)/C(C#N)=C/c1cn(C)c2ccccc12 | 3.9 µg/mL (≈ 14.5 µM) |
| Cc1nc(Cl)c(N=Cc2cccc([N+](=O)[O-])c2)c(Cl)n1 | > 46.7 µg/mL |
| CNC(=O)COc1ccc(Cl)c2cccnc12 | > 37.6 µg/mL |
| Cc1ccc(NC(=O)NCC2CC2(Cl)Cl)cc1 (stereo not drawn) | 9.1 µg/mL (≈ 33.3 µM) |
| Fc1ccc(C2c3cccn3CCN2C(=S)Nc2cccc(F)c2)cc1 (stereo not drawn) | 5.1 µg/mL (≈ 13.8 µM) |
| C=CCN(C(=O)Nc1ccc2c(c1)nc(C)n2C)c1ccccc1 | > 48.1 µg/mL |
| CC(=O)c1c(-c2ccc(C)cc2)nc2c3ccccc3ccn12 | < 0.3 µg/mL |
| Cc1noc(C(=O)Nc2ccc(C#N)cc2)c1Cl | 1.6 µg/mL (≈ 6.11 µM) |
| COc1c(C)cccc1C(=O)NCCCNC(=O)c1ccc(C)nc1 | 46.8 µg/mL (≈ 137 µM) |
| O=C(OCC(=O)N1CCOCC1)c1ccccc1OCc1ccc(Cl)cc1 | > 58.5 µg/mL |
| CCC(=O)Nc1ccc(/C=C(\C(C)=O)C(=O)c2ccccc2)cc1 | > 48.2 µg/mL |
| COc1ccc(OCC(=O)Nc2ccc3c(c2)C(=O)NC3=O)cc1 | 2.4 µg/mL (≈ 7.36 µM) |
| Cc1cc(C(C)(C)C)ccc1NC(=O)CC(C)(C)CC(=O)O | > 45.8 µg/mL |
| O=C(Nc1ccc2c(c1)OCO2)c1cc(Cl)ccn1 | 6.1 µg/mL (≈ 22 µM) |
| S=c1nccc(-c2ccc(Cl)cc2)[nH]1 | 26.7 µg/mL (≈ 120 µM) |
| NC(=O)C1c2ccccc2Oc2ccccc21 | 24.8 µg/mL (≈ 110 µM) |
| O=C1Cc2cc(NS(=O)(=O)c3ccc(Cl)cc3)cc3c2N1CCC3 | 42.9 µg/mL (≈ 118 µM) |
| CCCCNC(=O)OCCSCCS(=O)(=O)c1ccc(Cl)cc1 | 0.9 µg/mL (≈ 2.37 µM) |
| CCSc1nc2sc3c(c2c(=O)[nH]1)CC(C)(C)OC3 | 3.1 µg/mL (≈ 10.5 µM) |
| OC1(c2ccccn2)COc2ccccc2O1 (stereo not drawn) | 28.1 µg/mL (≈ 123 µM) |

| Compound | solubility kinetic |
| --- | --- |
| CCN(CC)S(=O)(=O)c1cccc(NC(=O)CC2CCCC2)c1 | 33 µg/mL (≈ 97.5 µM) |
| O=C(Nc1ccc(OCC(=O)N2CCOCC2)cc1)c1ccccc1F | > 53.8 µg/mL |
| C/C(=N\NC(=O)c1ccc(Cl)cc1)c1cccnc1 | > 41.1 µg/mL |
| Cc1ccc(S(=O)(=O)CC(=O)NCc2ccccc2)cc1 | 29.7 µg/mL (≈ 97.9 µM) |
| COc1ccccc1OCCCC(=O)NC(C)c1ccccc1 (stereo not drawn) | > 47 µg/mL |
| CC(CN1C(C)CCCC1C)OC(=O)c1ccccc1F.Cl (stereo not drawn) | > 49.5 µg/mL |
| O=C(Nc1cc(Cl)ccc1F)C1=COCCO1 | > 38.6 µg/mL |
| COc1ccccc1C(=O)Nc1nc(C)cc(C)n1 | 31.7 µg/mL (≈ 123 µM) |
| O=[N+]([O-])c1ccc(Oc2ccc(S(=O)(=O)N3CCOCC3)cc2)cc1 | 18.1 µg/mL (≈ 49.7 µM) |
| COc1ccc(NC(=O)c2cc3ccccc3o2)cc1S(=O)(=O)N1CCCCC1 | 9.2 µg/mL (≈ 22.2 µM) |
| O=C(CC1SC(N2CCCCC2)=NC1=O)Nc1cccc(C(=O)NCc2ccccc2)c1 (stereo not drawn) | > 67.6 µg/mL |
| Cc1cc(Nc2ccc(Br)cc2)nc2ccccc12 | < 0.3 µg/mL |
| Cn1c(/C=C/c2cccc([N+](=O)[O-])c2)nc2ccccc2c1=O | < 0.2 µg/mL |
| CCc1ccc(CN(C)C(=O)c2cc(=O)c3ccccc3o2)cc1 | 35 µg/mL (≈ 109 µM) |
| O=C(O)c1ccc2c(c1)C(=O)N(CCc1ccccc1)C2=O | > 44.3 µg/mL |
| CC(C)(C)N(Cc1ccccc1)C(=O)c1cccs1 | 1.7 µg/mL (≈ 6.22 µM) |
| Cc1cc(C)c(OCCOCCN2CCCC2)c(C)c1 | 30.2 µg/mL (≈ 109 µM) |
| CSc1ccccc1NC(=O)COc1ccc2c(c1)OCO2 | 41.4 µg/mL (≈ 130 µM) |
| O=C(CC1NCCNC1=O)Nc1ccccc1 (stereo not drawn) | > 35 µg/mL |
| NC(=O)CSc1nc2ccc([N+](=O)[O-])cc2[nH]1 | > 37.8 µg/mL |
| Cc1ccc(NC(=O)CN(C)C(=O)COC(=O)[C@@H](NC(=O)c2ccccc2F)C(C)C)cc1 | > 68.6 µg/mL |
| Cc1cc(OCC(=O)N(C)Cc2ccccc2)cc(C)c1Cl | 8.3 µg/mL (≈ 26.1 µM) |
| Cc1ccc2c(c1)cc(C(=O)N1CCN(c3ccccn3)CC1)n2C | 2.1 µg/mL (≈ 6.28 µM) |
| CC(NC(=O)CN(C)CC(=O)Nc1ccc(Cl)cc1)c1ccc(F)cc1 (stereo not drawn) | > 56.7 µg/mL |

| Compound | solubility kinetic |
| --- | --- |
| CCOC(=O)N1CCN(Cc2nc3cc([N+](=O)[O-])ccc3n2C)CC1 | 50.7 µg/mL (≈ 146 µM) |
| COC(=O)CC(c1ccc(F)cc1)n1c(C)ccc1C (stereo not drawn) | 15.7 µg/mL (≈ 57 µM) |
| CN(C)c1ccc(C(=O)NCCCSc2ccccc2)cc1 | 3.9 µg/mL (≈ 12.4 µM) |
| O=C(Cc1ccc([N+](=O)[O-])cc1)OCc1c(F)cccc1Cl | < 0.7 µg/mL |
| O=C(CCNC(=O)c1ccco1)Nc1ccccc1N1CCOCC1 | > 51.5 µg/mL |
| O=C(/C=C/c1ccc(F)cc1)N1CCCc2ccccc21 | 18.5 µg/mL (≈ 65.8 µM) |
| COc1ccc(C(=O)O)cc1S(=O)(=O)N1CCCc2ccccc21 | > 52.1 µg/mL |
| O=C(COC(=O)CNC(=O)C1CCCCC1)NCc1ccc(Cl)cc1 | 49.5 µg/mL (≈ 135 µM) |
| CCc1ccc(OCCOCCN2CCN(C)CC2)cc1.O=C(O)C(=O)O | 54 µg/mL |
| CC(C)Oc1ccc(/C=C(\C#N)C(=O)NC2CC2)cc1 | 13.4 µg/mL (≈ 49.6 µM) |
| O=C(Nc1cc(S(=O)(=O)Nc2ccccc2Cl)ccc1O)c1ccc(F)cc1F | 3.3 µg/mL (≈ 7.52 µM) |
| O=C(CS(=O)(=O)c1ccccc1)Nc1cccnc1 | > 41.4 µg/mL |
| COc1cc(OC)c(C(=O)NCc2cccnc2)cc1OC | 42.9 µg/mL (≈ 142 µM) |
| Cc1onc(-c2ccccc2Cl)c1C(=O)N1CCN(C=O)CC1 | > 50.1 µg/mL |
| CC1=[N+]([O-])C(C)(C)N(O)C1(C)C | > 25.8 µg/mL |
| COC(=O)C1CCN(C(=O)c2cc(=O)[nH]c3ccccc23)CC1 | > 47.2 µg/mL |
| COc1ccc(NC(=O)CSc2ccc3c(c2)OCCO3)cc1 | 46.1 µg/mL (≈ 139 µM) |
| Cc1cc(C(C)(C)C)oc1C(=O)OCC(=O)NC1CCCCC1 | 1.1 µg/mL (≈ 3.42 µM) |
| CC(C)C(=O)N1CCN(c2ccccc2NC(=O)c2ccco2)CC1 | 48 µg/mL (≈ 141 µM) |
| O=S(=O)(NCCc1ccncc1)c1ccc(F)cc1 | > 42 µg/mL |
| Cc1cc(C)c(S(=O)(=O)NCCCn2ccnc2)cc1C | > 46.1 µg/mL |
| CCCNC(=O)c1ccccc1SCc1c(C)noc1C | > 45.7 µg/mL |
